Experimental data as given in PubChem BioAssay (NCI).
Several values for one entry are separate records, joined by “and”; a condition that tells them apart may be missing. Equal values may be shown once.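 Cells were grown in 96-well plates and exposed to each compound for 48 hours at five concentrations; endpoints were interpolated linearly between bracketing concentrations, or set to the highest concentration if not reached. At the GI50, growth is halved. TGI: concentration producing complete growth inhibition.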

Tested on: MDA-MB-468 breast
Experiment: NCI anticancer screen, dose series, 48 h

| SMILES | GI50 | TGI |
| --- | --- | --- |
| O=C(Nc1ccc2[nH]nc(-c3ccncc3)c2c1)[C@@H]1CCN(CC(=O)N2CCN(c3ccc(-c4ncccn4)cc3)CC2)C1 | > 100000 nM | > 100000 nM |
| Cc1nc([P+](c2ccccc2)(c2ccccc2)c2ccccc2)c(Sc2sc(-c3ccccc3)nc2[P+](c2ccccc2)(c2ccccc2)c2ccccc2)o1 | 417 nM | 3280 nM |
| COc1ccc(C2CC(c3cccc(Nc4ccnc5cc(Cl)ccc45)c3)=NN2C=O)cc1 (stereo not drawn) | 239 nM | 836 nM |
| CC(N)C(Cc1ccc(Cl)cc1)c1ccc(Cl)cc1 (stereo not drawn) | 2960 nM | 11700 nM |
| CCOC(=O)c1cc(C(=O)c2cc(OC)c(OC)c(OC)c2)n2ncccc12 | 248 nM | 32200 nM |
| COc1ccc(/C=C/C(=O)c2cc(OC)c(OC)c(OC)c2)cc1OCC(=O)Nc1nc2ccc(OC(F)(F)F)cc2s1 | 3520 nM | 21200 nM |
| Fc1cc2[nH]ncc2c2c3c(c(-c4cn[nH]c4C(F)(F)F)nc12)CCCC3 | 1580 nM | 4350 nM |
| N#Cc1c(-n2c(Br)c(Br)c3cc(Br)ccc32)[nH]c2c(Br)cc(Br)cc12 | 907 nM | 3340 nM |
| O=C(CCCCCCNC(=O)C(O)(O)C(F)(F)F)Nc1ccc(Cl)cc1 | 1380 nM | 22200 nM |
| CCN1C(=S)N(c2ccccc2)C2NC(=S)N(/N=C/C=C/c3ccccc3OC)C21 (stereo not drawn) | 292 nM | 1060 nM |
| O=Nc1ccc(O)c(=O)cc1 | 739 nM | 2440 nM |
| OCCN1CCN(CCCN2c3ccccc3Sc3ccc(Cl)cc32)CC1 | 1270 nM | 2700 nM |
| CCN(CC)c1ccc(/C=N/NC(=O)CSc2nc3ccccc3c(=O)n2CCc2ccc(S(N)(=O)=O)cc2)c(O)c1 | 2120 nM | > 100000 nM |
| O=c1c2c(=NCCN3CCCC3)cc3c(=O)n(CCCN4CCOCC4)c(=O)c4c(-c5ccc(CN6CCCC6)cc5)cc(c(O)n1CCCN1CCOCC1)c2c4-3 | 32.4 nM | 119 nM |
| CC(C)(C)c1ccc(S(=O)(=O)Oc2ccc3c4c(c(=O)oc3c2)CCCCC4)cc1 | 3410 nM | > 100000 nM |
| C#Cc1nc(/C=C/C(=O)c2nccn2C)cs1 | 470 nM | 1470 nM |
| CS(=O)(=O)Nc1cncc(-c2ccc3ncnc(Nc4ccc(F)c(Cl)c4)c3c2)c1 | 181 nM | 936 nM |
| O=C(Cc1ccc(/C=C/C(=O)c2ncc[nH]2)cc1)Nc1ccc(F)cc1 | 974 nM | 3140 nM |
| COc1cc(/C=C\c2cc(OC)c(OC)c(OC)c2)cc(N/C=C\C(=O)c2ccc(OC(F)(F)F)cc2)c1OC | 3160 nM | > 100000 nM |
| CCN(Cc1ccc(C)cc1)c1ccc(CO)c(Cl)c1 | 16.9 nM | 44.5 nM |
| COC[C@@H](N=C1NC(=O)/C(=C/c2ccc3ncccc3c2)S1)c1ccccc1 | 4510 nM | 17600 nM |

| SMILES | GI50 | TGI |
| --- | --- | --- |
| CN(c1ncccc1CNc1nc(Nc2ccc3c(c2)CC(=O)N3)ncc1C(F)(F)F)S(C)(=O)=O | 1830 nM and 1620 nM | 4040 nM and 4840 nM |
| Fc1cccc(COc2ccc(Nc3ncnc4sc(-c5cccs5)cc34)cc2Cl)c1 | 201 nM | 2310 nM |
| Cc1nc2ccc(Nc3nc(Cl)nc(N4CCOCC4)n3)cc2n1Cc1ccccc1 | 2210 nM | 7090 nM |
| Cc1cccc(N(C)C(=O)[C@@H]2[C@H](O)CCN2c2nc(C)cc(C(F)(F)F)c2C#N)c1 | 17300 nM | 51300 nM |
| C=C1CC[C@@H]2[C@](C)(COC(C)=O)[C@H](OC(C)=O)CC[C@@]2(C)[C@@H]1CC(Nc1ccc(S(=O)(=O)NC(C)=O)cc1)C1=CCOC1=O (stereo partly drawn) | 1530 nM | 3130 nM |
| CCSCC1CC(O)(c2ccccc2)CC(c2ccc(F)cc2)O1 (stereo not drawn) | 2040 nM | 6050 nM |
| CC(=O)O[C@H]1C(=O)[C@@]2(C)C(C(OC(=O)c3ccccc3)[C@]3(O)C[C@H](OC(=O)C(OC(=O)CCCC(=O)NCCCN(C)C)C(NC(=O)c4ccccc4)c4ccccc4)C(C)=C1C3(C)C)C1(OC(C)=O)COC1C[C@@H]2O (stereo partly drawn) | < 10 nM | 10400 nM |
| C/C(=N\NC(=S)N1CCCCC1)c1ccccn1 | < 10 nM | 135 nM |
| CCCCCCNC(=O)Oc1ccc(/C(=C(/C)c2ccc(OC)cc2)c2ccc(OCCN3CCCCCC3)cc2)cc1 | 2040 nM | 4760 nM |
| CC(=O)c1ccc2c(c1)c1cc(C(C)=O)ccc1n2CCNC(C)C | 330 nM | 1740 nM |
| COc1ccc(C2=N[C@@H](Cc3ccccc3)C(=O)Nc3ccsc32)cc1 | 1760 nM | 4580 nM |
| CC(=O)Nc1ccc2c(c1)C(c1ccccc1Cl)=Nc1c(n[nH]c1C)N2 | 1630 nM | > 25000 nM |
| COc1cc(OC)c(S(N)(=O)=O)cc1C(=O)/C=C/c1ccccc1 | 1200 nM | 9280 nM |
| CCOC(=O)c1ccc(NC(=O)Nc2nncs2)cc1 | 176 nM | 14800 nM |
| Cc1cc(O)c(=O)cc2c1C[C@H]1CC(C)(C)/C=C/C[C@]3(C)Oc4cc(=O)c(O)cc(C)c4C[C@H]3C[C@H](O)[C@@]1(C)O2 | < 15.2 nM and 7.03 nM | 243 nM and 106 nM |
| Cc1cc2nc3c4cc(O)ccc4n(CCN(C)C)c3nc2cc1C | 816 nM | 2780 nM |
| O=S(=O)(NCCCNc1nccc(-c2c(-c3ccc(O)cc3)nc3sccn23)n1)c1ccc(F)cc1 | 2000 nM | 9430 nM |
| COc1cc(C2Cc3ncccc3-c3[nH]c(=O)c4cccnc4c32)cc(OC)c1OC (stereo not drawn) | 340 nM |  |
| Nc1nccc(-c2c(-c3ccc(F)cc3)ncn2C2CCNCC2)n1 | 649 nM and 2520 nM | > 10800 nM and 11500 nM |
| NS(=O)(=O)c1ccc(Nc2cc(-c3cccc(O)c3)[nH]n2)cc1 | 9580 nM | > 25000 nM |
| CCC(C)[C@H]1O[C@]2(CC[C@@H]1C)C[C@@H]1C[C@@H](C/C=C(\C)[C@@H](OC3C[C@H](OC)C(O[C@H]4C[C@H](OC)[C@@H](O)[C@H](C)O4)[C@H](C)O3)[C@@H](C)/C=C/C=C3\CO[C@@H]4[C@H](O)C(C)=C[C@@H](C(=O)O1)[C@]34O)O2 (stereo partly drawn) | 1600 nM | 3400 nM |
